From patent US9862754B2, “Peptide analogs for treating diseases and disorders” (KeyBioscience AG, priority 2011, dated 2018)
Bridge positions count the residues as written; N and C are the ends. Ends that are not written are not given here.

What was measured:
Format in all cases: in vivo, rat
[1] = Example 1: chronic oral treatment, body weight and food intake in DIO rats; settings: for body weight: 4 weeks, vs oral vehicle (mimetic also vs oral sCT); for body weight / cumulative food intake: study end; for body weight / food intake: 1 mg/kg p.o. b.i.d. with 150 mg/kg 5-CNAC; for food intake: first week of treatment; for food intake / cumulative food intake: vs oral vehicle; for cumulative food intake: four weeks of treatment, 1 mg/kg p.o. b.i.d.
Protocol: (§1) The study was performed in male Levin-DIO rats (diet-sensitive) and Levin-DR (diet-resistant) (TacLevin: CD (SD) DIO) (Taconic, Hudson, N.Y., U.S.A.) obtained at age 6-7 weeks. On arrival, DIO rats were given high fat diet (60 kcal %) (#D12495, Research Diets Inc., New Brunswick, N.J., USA) and kept on the same diet for 16 weeks prior to and during the experiment. DR rats were given low-fat diet and served as control group. Animals were pair-wise housed throughout the study. Rats were handled and pre-dosed once daily with MilliQ H2O for 2-3 weeks prior to experimental start to reduce stress-induced hyperglycaemia. Baseline parameters were recorded in an fasting (6 h) condition. Rats were randomized into treatment groups based on fasting body weight (BW) and fasting plasma glucose (FPG). Body weight, food and water intake were recorded once weekly during the study period.
Oral sCT or calcitonin mimetic 1 solution was prepared on the day of dosing by mixing a carrier with the given compound based on the following calculations:
Animals treated with oral sCT or oral calcitonin mimetic 1 received doses of 1.0 mg/kg combined with 150 mg/kg 5-CNAC—all dissolved in milliQ H20.
Drug administration by per oral (p.o.) gavage b.i.d. (7-8 am and 3-4 pm) during the study period and as single dose in the morning prior to start of OGTT.
(§2) Statistical analysis was performed by one-way ANOVA followed by the Dunnett's post hoc test for multiple comparison. Student's t-test was performed to compare two paired group. All analysis was performed using GRAPHPAD PRISM software (GraphPad Prism, San Diego, Calif. U.S.A). Incremental area under curve (iAUC) during OGTT was calculated by the trapezoidal method. A value of P<0.05 was considered to be significant. All data are presented as mean±standard error of the mean (SEM).
One dose of oral sCT/calcitonin mimetic 1 containing 1 mg/kg compound was applied by gavage twice daily to four groups of rats for 4 weeks. An oral vehicle group served as dosing regimen control, respectively. * P<0.05, ** P<0.01, *** P<0.001 vs Vehicle. Results are presented as means±SEM.

[2] = Example 1: fasting glycaemia in DIO rats; settings: following 2 and 4 weeks of treatment, 1 mg/kg p.o. b.i.d.
Protocol: as §1
Blood sampling and glycemia were measured by heated tail venous puncture.
Whole blood glucose levels were determined with an ACCU-CHEK® Avia blood glucose meter (Roche Diagnostics, Rotkreuz, Switzerland). Blood (approx 300 ul) is collected in 1 ml MiniCollect K3EDTA plasma-tube (Greiner-Bio-One GmbH, Frickenhausen, Germany), inverted, and stored on ice. Tubes are centrifuged 3000×g (5000 rpm in table centrifuge) for 10 min at 4° C. and plasma obtained. Plasma samples are stored at −20° C. until analysis. […]

[3] = Example 2: short-term oral treatment, body weight and food intake in DIO rats; settings: for food intake: 0.5, 1 and 2 mg/kg p.o. b.i.d. for 3 days; for body weight: 0.5, 1 and 2 mg/kg p.o. b.i.d. for 3 days with 150 mg/kg 5-CNAC
Protocol: as §1, with “diet for 12 weeks prior” for “diet for 16 weeks prior”, “stress-induced hyperglycaemia. On the day prior to study start animals were given a single dose of vehicle. Baseline parameters” for “stress-induced hyperglycaemia. Baseline parameters”, “in an overnight fasting (16” for “in an fasting (6”, “overnight fasting (16 h) condition.” for “an fasting (6 h) condition.”, “were recorded prior to and at study end.” for “were recorded once weekly during the study period.”, “at study end.” for “the study period.”
Animals treated with oral sCT or oral calcitonin mimetic 1 received doses of 0.5 mg/kg, 1.0 mg/kg or 2.0 mg/kg combined with 150 mg/kg 5-CNAC—all dissolved in milliQ H20.
(§3) Drug administration were given by per oral (p.o.) gavage b.i.d. during the study period and as single dose in the morning prior to start of OGTT.
Following the initial (1st) OGTT, animals are randomized into treatment groups based on FBG and BW. Animals will be pre-treated 3 days (b.i.d.) prior to 2nd OGTT. Dosing will be performed in the morning (7-8 am) and afternoon (3-4 pm).
The study was performed in an x-over design with each animal being its own control.
Three different doses of oral sCT/calcitonin mimetic 1 containing 0.5, 1 and 2 mg/kg compound were applied by gavage twice daily to 4 groups of rats for 3 days. * P<0.05, ** P<0.01 vs oral sCT.

[4] = Example 3: short-term oral treatment, body weight and food intake in DIO rats
Protocol: as §1, with “diet for 12 weeks prior” for “diet for 16 weeks prior”, “reduce stress-induced hyperglycemia. On the day prior to study start animals were given a single dose of vehicle. Baseline parameters” for “reduce stress-induced hyperglycaemia. Baseline parameters”, “in an overnight fasting (16” for “in an fasting (6”, “overnight fasting (16 h) condition.” for “an fasting (6 h) condition.”, “were recorded prior to and at study end.” for “were recorded once weekly during the study period.”, “at study end.” for “the study period.”
Animals treated with oral sCT or oral UGP284/UGP298/UGP302 received doses of 0.5 mg/kg, 1.0 mg/kg or 2.0 mg/kg combined with 150 mg/kg 5-CNAC—all dissolved in milliQ H2O.
as §3
Following the initial (1st) OGTT, animals were randomized into treatment groups based on FBG and BW. Animals were pre-treated 3 days (b.i.d.) prior to 2nd OGTT. The study was performed in an x-over design with each animal being its own control.
as §2
FIG. 9A, FIG. 9B, FIG. 9C, FIG. 9D, FIG. 9E, and FIG. 9F show the effect of three different doses of oral sCT/UGP284/UGP298/UGP302 containing 0.5, 1 and 2 mg/kg compound were applied by gavage twice daily to 4 groups of rats for 3 days. * P<0.05, ** P<0.01 vs oral sCT. Results are presented as means±SEM.

Substance	body weight [1]	food intake [1]	cumulative food intake [1]	fasting glycaemia [2]	reduction in body weight vs oral sCT at same dose ([3]; 0.5 mg/kg p.o. b.i.d. for 3 days)	food intake [3]	body weight [3]	reduction in body weight vs oral sCT at same dose ([4]; 0.5 mg/kg p.o. b.i.d. for 3 days, DIO rats)	energy balance vs equivalent doses of oral sCT ([4]; 0.5, 1 and 2 mg/kg doses p.o., male DIO rats)	body weight ([4]; 0.5, 1 and 2 mg/kg p.o. b.i.d. for 3 days with 150 mg/kg 5-CNAC, DIO rats)	food intake ([4]; 0.5, 1 and 2 mg/kg p.o. b.i.d. for 3 days, DIO rats)
Ac-CSNLSTCVLGKLSQELHKLQTYPRTDVGANAP-NH2 (Ac-CSNLSTCVLGKLSQELHKLQTYPRTDVGANAP-NH2; ends and bridges not checked) [UGP302, calcitonin mimetic]	more pronounced significant reduction in body weight	significantly reduced food intake	significantly reduced	trend towards superiority in fasting glycaemia	significantly difference to oral sCT 0.5 mg/kg	trended dose-dependently reduced compared to oral sCT	dose-dependent superiority to oral sCT	significantly difference to oral sCT 0.5 mg/kg	superiority to equivalent doses of oral sCT	–	–
salmon calcitonin (CSNLSTCVLGKLSQELHKLQTYPRTNTGSGTP-NH2; disulfide 1-7; ends not checked) [sCT, reference compound]	significantly reduced body weight from baseline	significantly reduced food intake	lack of difference	not significantly different from oral vehicle	–	dose-dependently decreased	dose-dependently decreased	–	–	dose-dependently decreased	dose-dependently decreased
